According to paper PMC4482421 (ACS Nano, 2015):
Square brackets hold non-standard residues; d marks the D form. Peptide text beside a SMILES is read from it. pS = N[C@@H](COP(=O)(O)O)C(=O)O

Tests used:
[1] = system: human coronary artery vascular smooth muscle cells (HCAVSMCs); assay: Cytotoxicity assay; type: cell-based; conditions: 10–500 μM peptide, 2 h treatment, then 24 h in fresh medium
[2] = system: human saphenous vein (HSV) rings; assay: Inhibition of phenylephrine-induced HSV contraction; conditions: HSV rings ex vivo; 2 h treatment; 1 μM phenylephrine; n ≥ 3 donors

SMILES: CC(C)C[C@H](NC(=O)CNC(=O)[C@@H]1CCCN1C(=O)[C@H](CC(C)C)NC(=O)[C@@H]1CCCN1C(=O)[C@H](C)NC(=O)[C@H](COP(=O)(O)O)NC(=O)[C@H](C)NC(=O)[C@H](CCCNC(=N)N)NC(=O)[C@H](CCCNC(=N)N)NC(=O)[C@H](CC(C)C)NC(=O)[C@H](Cc1c[nH]c2ccccc12)NC(=O)[C@H](C)NC(=O)[C@H](CCCNC(=N)N)NC(=O)[C@H](C)NC(=O)[C@H](CCC(N)=O)NC(=O)[C@H](CCCNC(=N)N)NC(=O)[C@H](C)NC(=O)[C@H](C)NC(=O)[C@H](C)NC(=O)[C@H](CCCNC(=N)N)NC(=O)[C@H](C)NC(=O)[C@@H](N)Cc1ccc(O)cc1)C(=O)N[C@@H](CCCCN)C(=O)O [p-HSP20] (H-YARAAARQARAWLRRA[pS]APLPGLK-OH; N-terminus and C-terminus assumed)
- cytotoxicity / biocompatibility [1]: biocompatible with the exception of mild cytotoxicity detected at 500 μM
- inhibition of PE-induced HSV contraction [2]: significantly inhibited the second PE-induced HSV contraction
